How the values were obtained:
[1] = Body weight change of tumor bearing mice (toxic effects); type: in vivo, B6C3F1 hybrid female mice; details: 5-Fluorouracil 98 mg/kg, i.p., qd (1, 7, 14, 21)
From the text: (§1) Anticancer activities of T4GEN and n-T4GEN were studied in animals bearing subcutaneous transplants of C3H Mammary adenocarcinoma 16/C. This tumor is maintained as a lung passed tumor in C3H female mice. In this example, tumors (1×10^6 cells) were transplanted (S.C.) in 18-20 g B6C3F1 hybrid female mice. On the following day, the tumor bearing animals were randomized and separated into different treatment groups (10 mice per group). There were 15 animals in the control group who received only physiological saline during the treatment periods. The treatments (i.p.) were started 48 hours after the transplants and given for a duration of 14 days (daily single injections). Animals were weighed on days 5, 9 and 14 to assess toxic effects. Tumors were measured on days 21, 28 post transplants and the results are represented as tumor weights using formula [formula]

[2] = tested on: C3H Mammary adenocarcinoma 16/C; assay: Growth of subcutaneous transplants of C3H mammary adenocarcinoma 16/C in mice; type: in vivo, B6C3F1 hybrid female mice; details: 5-Fluorouracil 98 mg/kg, i.p., qd (1, 7, 14, 21)
From the text: as §1, with “The treatments (i.p.) were started 48 hours after the transplants and given for a duration of 14 days (daily single injections).” left out
(I=length of tumor, w=width of tumor expressed in mm).

O=c1[nH]cc(F)c(=O)[nH]1 [5-Fluorouracil]
ΔWts (g) (day 14) [1]: +1.77 g | Tumor Free Animals (day 93) [2]: 0/6 | Tumor Wts (day 21) [2]: 0.00 | Tumor Weight Inhibition % ([2]; day 21): 100%
